# Test results published in ChEMBL document CHEMBL1649268, “Comparative in vitro activity profile of oritavancin against recent gram-positive clinical isolates” (2009).
# Columns and labels:
# Format in all cases: functional
# [1] = tested on: Streptococcus pneumoniae; assay: Antimicrobial activity against Streptococcus pneumoniae clinical isolates assessed as resistant isolates by broth microdilution method in presence of clavulanate
# [2] = tested on: Streptococcus pneumoniae; assay: Antimicrobial activity against penicillin-susceptible Streptococcus pneumoniae clinical isolates by broth microdilution method in presence of clavulanate
# [3] = tested on: Streptococcus pneumoniae; assay: Antimicrobial activity against penicillin-resistant Streptococcus pneumoniae clinical isolates assessed as resistant isolates by broth microdilution method in presence of clavulanate
# [4] = tested on: Streptococcus pneumoniae; assay: Antimicrobial activity against penicillin-intermediate Streptococcus pneumoniae clinical isolates assessed as percent susceptible isolates by broth microdilution method in presence of clavulanate
# [5] = tested on: Streptococcus pneumoniae; assay: Antimicrobial activity against penicillin-intermediate Streptococcus pneumoniae clinical isolates assessed as resistant isolates by broth microdilution method in presence of clavulanate
# [6] = tested on: Streptococcus pneumoniae; assay: Antimicrobial activity against penicillin-resistant Streptococcus pneumoniae clinical isolates assessed as percent susceptible isolates by broth microdilution method in presence of clavulanate
# [7] = tested on: Streptococcus pneumoniae; assay: Antimicrobial activity against penicillin-intermediate Streptococcus pneumoniae clinical isolates by broth microdilution method in presence of clavulanate
# [8] = tested on: Streptococcus pneumoniae; assay: Antimicrobial activity against Streptococcus pneumoniae clinical isolates by broth microdilution method in presence of clavulanate
# [9] = tested on: Streptococcus pneumoniae; assay: Antimicrobial activity against penicillin-resistant Streptococcus pneumoniae clinical isolates by broth microdilution method in presence of clavulanate
# [10] = tested on: Streptococcus pneumoniae; assay: Antimicrobial activity against penicillin-susceptible Streptococcus pneumoniae clinical isolates assessed as percent susceptible isolates by broth microdilution method in presence of clavulanate
# [11] = tested on: Streptococcus pneumoniae; assay: Antimicrobial activity against Streptococcus pneumoniae clinical isolates assessed as percent susceptible isolates by broth microdilution method in presence of clavulanate
# [12] = tested on: Streptococcus pneumoniae; assay: Antimicrobial activity against penicillin-susceptible Streptococcus pneumoniae clinical isolates assessed as resistant isolates by broth microdilution method in presence of clavulanate
# [13] = Antimicrobial activity against Streptococcus Group C clinical isolates by broth microdilution method; conditions: Streptococcus sp. 'group C'
# [14] = tested on: Staphylococcus aureus; assay: Antimicrobial activity against vancomycin- susceptible Staphylococcus aureus clinical isolates
# [15] = tested on: Enterococcus faecium; assay: Antimicrobial activity against Enterococcus faecium clinical isolates by broth microdilution method
# [16] = tested on: Staphylococcus aureus; assay: Antimicrobial activity against oxacillin-resistant Staphylococcus aureus clinical isolates by broth microdilution method
# [17] = tested on: Staphylococcus epidermidis; assay: Antimicrobial activity against Staphylococcus epidermidis clinical isolates by broth microdilution method
# [18] = tested on: Enterococcus faecalis; assay: Antimicrobial activity against Enterococcus faecalis clinical isolates by broth microdilution method
# [19] = tested on: Staphylococcus haemolyticus; assay: Antimicrobial activity against oxacillin-susceptible Staphylococcus haemolyticus clinical isolates by broth microdilution method
# [20] = tested on: Streptococcus pyogenes; assay: Antimicrobial activity against erythromycin-susceptible Streptococcus pyogenes clinical isolates by broth microdilution method
# [21] = tested on: Streptococcus; assay: Antimicrobial activity against erythromycin-nonsusceptible Streptococcus Group F clinical isolates by broth microdilution method
# [22] = tested on: Streptococcus pneumoniae; assay: Antimicrobial activity against penicillin-intermediate Streptococcus pneumoniae clinical isolates by broth microdilution method
# [23] = tested on: Streptococcus agalactiae; assay: Antimicrobial activity against erythromycin-susceptible Streptococcus agalactiae clinical isolates by broth microdilution method
# [24] = tested on: Staphylococcus aureus; assay: Antimicrobial activity against oxacillin-susceptible Staphylococcus aureus clinical isolates by broth microdilution method
# [25] = tested on: Streptococcus pyogenes; assay: Antimicrobial activity against Streptococcus pyogenes clinical isolates by broth microdilution method
# [26] = tested on: Enterococcus faecium; assay: Antimicrobial activity against Enterococcus faecium expressing VanA gene clinical isolates by broth microdilution method
# [27] = tested on: Streptococcus pyogenes; assay: Antimicrobial activity against erythromycin-nonsusceptible Streptococcus pyogenes clinical isolates by broth microdilution method
# [28] = tested on: Streptococcus; assay: Antimicrobial activity against erythromycin-susceptible Streptococcus Group F clinical isolates by broth microdilution method
# [29] = tested on: Staphylococcus aureus; assay: Antimicrobial activity against heterogeneous vancomycin-intermediate Staphylococcus aureus clinical isolates
# [30] = tested on: Enterococcus faecalis; assay: Antimicrobial activity against Enterococcus faecalis expressing VanB gene clinical isolates by broth microdilution method
# [31] = tested on: Streptococcus; assay: Antimicrobial activity against Streptococcus Group F clinical isolates by broth microdilution method
# [32] = tested on: Staphylococcus epidermidis; assay: Antimicrobial activity against oxacillin-resistant Staphylococcus epidermidis clinical isolates by broth microdilution method
# [33] = Antimicrobial activity against erythromycin-nonsusceptible Streptococcus Group G clinical isolates by broth microdilution method; conditions: Streptococcus sp. 'group G'
# [34] = tested on: Staphylococcus epidermidis; assay: Antimicrobial activity against oxacillin-susceptible Staphylococcus epidermidis clinical isolates by broth microdilution method
# [35] = tested on: Enterococcus faecium; assay: Antimicrobial activity against vancomycin-susceptible Enterococcus faecium clinical isolates by broth microdilution method
# [36] = tested on: Staphylococcus aureus; assay: Antimicrobial activity against vancomycin-resistant Staphylococcus aureus clinical isolates
# [37] = Antimicrobial activity against erythromycin-susceptible Streptococcus Group G clinical isolates by broth microdilution method; conditions: Streptococcus sp. 'group G'
# [38] = Antimicrobial activity against erythromycin-nonsusceptible Streptococcus Group C clinical isolates by broth microdilution method; conditions: Streptococcus sp. 'group C'
# [39] = tested on: Streptococcus agalactiae; assay: Antimicrobial activity against erythromycin-nonsusceptible Streptococcus agalactiae clinical isolates by broth microdilution method
# [40] = tested on: Enterococcus faecalis; assay: Antimicrobial activity against vancomycin-susceptible Enterococcus faecalis clinical isolates by broth microdilution method
# [41] = Antimicrobial activity against erythromycin-susceptible Streptococcus Group C clinical isolates by broth microdilution method; conditions: Streptococcus sp. 'group C'
# [42] = tested on: Streptococcus pneumoniae; assay: Antimicrobial activity against penicillin-resistant Streptococcus pneumoniae clinical isolates by broth microdilution method
# [43] = tested on: Enterococcus faecalis; assay: Antimicrobial activity against Enterococcus faecalis expressing VanA gene clinical isolates by broth microdilution method
# [44] = Antimicrobial activity against Streptococcus Group G clinical isolates by broth microdilution method; conditions: Streptococcus sp. 'group G'
# [45] = tested on: Staphylococcus aureus; assay: Antimicrobial activity against Staphylococcus aureus clinical isolates by broth microdilution method
# [46] = tested on: Streptococcus agalactiae; assay: Antimicrobial activity against Streptococcus agalactiae clinical isolates by broth microdilution method
# [47] = tested on: Streptococcus pneumoniae; assay: Antimicrobial activity against Streptococcus pneumoniae clinical isolates by broth microdilution method
# [48] = tested on: Staphylococcus aureus; assay: Antimicrobial activity against vancomycin-intermediate Staphylococcus aureus clinical isolates
# [49] = tested on: Staphylococcus haemolyticus; assay: Antimicrobial activity against oxacillin-resistant Staphylococcus haemolyticus clinical isolates by broth microdilution method
# [50] = tested on: Enterococcus faecium; assay: Antimicrobial activity against vancomycin-nonsusceptible Enterococcus faecium clinical isolates by broth microdilution method
# [51] = tested on: Enterococcus faecium; assay: Antimicrobial activity against Enterococcus faecium expressing VanB gene clinical isolates by broth microdilution method
# [52] = tested on: Staphylococcus haemolyticus; assay: Antimicrobial activity against Staphylococcus haemolyticus clinical isolates by broth microdilution method
# [53] = tested on: Streptococcus pneumoniae; assay: Antimicrobial activity against penicillin-susceptible Streptococcus pneumoniae clinical isolates by broth microdilution method
# [54] = tested on: Enterococcus faecalis; assay: Antimicrobial activity against vancomycin-nonsusceptible Enterococcus faecalis clinical isolates by broth microdilution method
smiles,measurement,setting,value
CC1(C)S[C@@H]2[C@H](NC(=O)[C@H](N)c3ccc(O)cc3)C(=O)N2[C@H]1C(=O)O [AMOXICILLIN],Activity,[1],1.5%
same,MIC90,[2],0.03 µg/mL
same,Activity,[3],10.1%
same,Activity,[4],99.5%
same,Activity,[5],0%
same,Activity,[6],53.4%
same,MIC90,[7],1 µg/mL
same,MIC90,[8],2 µg/mL
same,MIC90,[9],8 µg/mL
same,Activity,[10],100%
same,Activity,[11],93.1%
same,Activity,[12],0%
CN[C@H](CC(C)C)C(=O)N[C@H]1C(=O)N[C@@H](CC(N)=O)C(=O)N[C@H]2C(=O)N[C@H]3C(=O)N[C@H](C(=O)N[C@H](C(=O)O)c4cc(O)cc(O)c4-c4cc3ccc4O)[C@H](O[C@H]3C[C@](C)(N)[C@@H](O)[C@H](C)O3)c3ccc(c(Cl)c3)Oc3cc2cc(c3O[C@@H]2O[C@H](CO)[C@@H](O)[C@H](O)[C@H]2O[C@H]2C[C@](C)(NCc3ccc(-c4ccc(Cl)cc4)cc3)[C@@H](O)[C@H](C)O2)Oc2ccc(cc2Cl)[C@H]1O [ORITAVANCIN],MIC90,[13],0.5 µg/mL
same,MIC90,[14],0.12 µg/mL
same,MIC90,[15],0.12 µg/mL
same,MIC90,[16],0.12 µg/mL
same,MIC90,[17],0.25 µg/mL
same,MIC90,[18],0.06 µg/mL
same,MIC90,[19],0.06 µg/mL
same,MIC90,[20],0.25 µg/mL
same,MIC90,[21],0.25 µg/mL
same,MIC90,[22],0.008 µg/mL
same,MIC90,[23],0.25 µg/mL
same,MIC90,[24],0.12 µg/mL
same,MIC90,[25],0.25 µg/mL
same,MIC90,[26],0.25 µg/mL
same,MIC90,[27],0.25 µg/mL
same,MIC90,[28],0.5 µg/mL
same,MIC90,[29],1 µg/mL
same,MIC90,[30],0.06 µg/mL
same,MIC90,[31],0.5 µg/mL
same,MIC90,[32],0.25 µg/mL
same,MIC90,[33],0.25 µg/mL
same,MIC90,[34],0.25 µg/mL
same,MIC90,[35],0.03 µg/mL
same,MIC90,[36],0.5 µg/mL
same,MIC90,[37],0.5 µg/mL
same,MIC90,[38],0.25 µg/mL
same,MIC90,[39],0.25 µg/mL
same,MIC90,[40],0.06 µg/mL
same,MIC,[41],≤ 0.0005 µg/mL
same,MIC90,[42],0.008 µg/mL
same,MIC90,[43],1 µg/mL
same,MIC90,[44],0.5 µg/mL
same,MIC90,[45],0.12 µg/mL
same,MIC90,[46],0.25 µg/mL
same,MIC90,[47],0.008 µg/mL
same,MIC90,[48],1 µg/mL
same,MIC90,[49],0.12 µg/mL
same,MIC90,[50],0.25 µg/mL
same,MIC90,[51],0.06 µg/mL
same,MIC90,[52],0.12 µg/mL
same,MIC90,[53],0.004 µg/mL
same,MIC90,[54],1 µg/mL
